The text below walks through data of patent publication US11884647B2, “Compounds and methods for targeting pathogenic blood vessels” (THE REGENTS OF THE UNIVERSITY OF CALIFORNIA, priority 2019, dated 2024).

Test [1] concerns tumor endothelial cells (CT26.CL25 colon cancer tumor). Nature of the test: Colon CT26 ex vivo model of tumor angiogenesis. The settings on record: Mus musculus, CT26, 48 h, read-out: Cell death. In kind it is cell-based. The protocol:
This example describes a procedure to prepare a primary tumor angiogenesis model for assessing the efficacy of anti-cancer candidate agents.
1. The day before the experiment, spray all necessary tools with 70% ethanol and sterilize them under UV light overnight, including blade, dissecting and micro-dissecting scissors and […]. Place 24-well dishes at 4° C. to pre-chill plates and thaw Matrigel 24 hours before tumor dissection.
2. Spray 70% ethanol on working bench. Prepare two sterile petri dishes with 10 mL sterile PBS. Steps 3 and 4 are for mouse tumor models. For fresh human tumor, directly go to step 5.
3. Euthanize the tumor-bearing mice. Spray 70% ethanol on the mouse and remove the tumor using sterilized dissecting tools (avoid the fur). Rinse the tumor in petri dish with sterile PBS to remove ethanol and fur. Transfer the tumor to a new petri dish with PBS for dissection. Place the dish on ice.
4. Using pre-chilled sterile pipet tips to seed regular Matrigel in 24 well plates on ice. Matrigel (30 μL) is dropped in the middle of each well without touching the edge of the well (avoid introducing bubbles if possible).
5. Cut the tumor in halves using the sterile blade. Identify and isolate healthy tumor tissue that is not necrotic and is within the tumor capsule. Cut the healthy tumor tissue into small pieces. For instance, a suitable size for the tumor tissue is 0.5 mm (H)×0.5 mm (L)×0.3 mm (D) with a total volume of 0.075 mm^3.
6. Gently transfer and embed each tumor piece in the Matrigel drop in the 24-well plate. Place the embedded piece in the bottom and middle of each Matrigel drop. Keep the plate on ice all the time.
7. After seeding the tumor pieces, plates are incubated in a 37° C. cell culture incubator without medium for 10 minutes in order for the Matrigel to solidify.
8. Endothelial Growth Medium (0.5 mL) is added to each well and incubated at 37° C. with 5% CO2. Wait until the new endothelial cells have grown out of the tumor or are larger than 3 mm in diameter until treatment. This usually takes 4 days for the LL2 Lewis lung cancer model and 7 days for the CT26 colon cancer model. For human tumor models, the growth time is typically 2-3 weeks, depending on the tumor type. Media is changed every 4 days during prolonged culture. Typically, when the tumor tissue grows to 2 mm in diameter, it is good for drug testing. A size of about 3 mm in diameter can make visualization easier.
9. When the assay is ready to be analyzed for cell death (e.g., 48 hours after drug addition), prepare the dye mixture by mixing 6 μL of green dye to stain live cells (5 mg/mL Fluorescein diacetate or FDA in DMSO) with 30 μL of red dye (2.5 mg/mL Propidium iodide or PI in PBS) to stain dead cells in an Eppendorf tube. The FDA dye needs to be stored frozen in a −20° C. freezer because it has a labile ester bond.
10. Add 1 μL of the dye mixture to each well of the 24-well dish. It is usually performed one 24-well dish at a time given the amount of time needed to take pictures (the green dye is not as stable in the cells in the long term).
11. Gently rock the dish a few times to mix the dye with the media in the wells and incubate the dish at 37° C. for 10 min (too long incubation can make the green signal too intense).
12. Wash each well with 0.5 mL of sterile PBS and then add 0.5 mL of phenol red free SFM to each well. Alternatively 0.5 mL of regular Endothelial Cell Growth Media can be added to each well if this well needs to be continuously maintained after the experiment.
13. Look through all wells on an inverted microscope using the 2× objective lens to observe morphological changes.
14. Taking pictures in the red and green channels would allow not only the recording of the result but also more accurate quantitation of the result. To take pictures for all the wells, first pick a well that has robust red and green signals. […]

Test [2] deals with tumor endothelial cells (LL/2 lung cancer tumor). The test is described as follows: Lung LL2 ex vivo model of tumor angiogenesis. In kind it is cell-based, mouse. To be noted: for cytotoxicity at 40 µM / cytotoxicity at 20 µM: Mus musculus, Endothelial cell, 48 h, read-out: Cell death; for Cell death: drug treatment two days. The gist of the method: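 Mouse LL2 tumor fragments (~0.5×0.5×0.3 mm) embedded in Matrigel and grown in endothelial growth medium at 37° C until endothelial outgrowth (about 4 days) before drug treatment. About 48 h after drug addition, stained 10 min with fluorescein diacetate/propidium iodide; live (green) and dead (red) cells imaged at 2× with fixed channel settings.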

`CCCCOc1ccc(S(=O)(=O)c2cnc3ccc([S+](C)[O-])cc3c2N2CCC(N3CCCN(C)CC3)CC2)cc1` (stereo not shown) [compound 241, 3-((4-butoxyphenyl)sulfonyl)-4-(4-(4-methyl-1,4-diazepan-1-yl)piperidin-1-yl)-6-(methylsulfinyl)quinoline]: the cytotoxicity at 10 µM in test [1] was found to be 0%. For the same compound, in test [2], the cytotoxicity at 40 µM was found to be 40%.

Regarding `CCCCOc1ccc(S(=O)(=O)c2cnc3ccc(OC(F)(F)F)cc3c2-n2cncn2)cc1` [compound 93, 3-((4-butoxyphenyl)sulfonyl)-4-(1H-1,2,4-triazol-1-yl)-6-(trifluoromethoxy)quinoline], in test [1], the cytotoxicity at 10 µM was 100%. Also, the cytotoxicity at 20 µM in test [2] was determined as 100%. `COc1ccc(S(=O)(=O)c2cnc3ccc(OC(F)(F)F)cc3c2N2CCC(O)CC2)cc1OC` [compound 58, 1-(3-((3,4-dimethoxyphenyl)sulfonyl)-6-(trifluoromethoxy)quinolin-4-yl)piperidin-4-ol]: the cytotoxicity at 40 µM in test [1] and in test [2] was 50% each time. With `O=S(=O)(c1ccc(OC(F)(F)F)cc1)c1cnc2ccc(OC(F)(F)F)cc2c1-n1cncn1` [compound 91, 4-(1H-1,2,4-triazol-1-yl)-6-(trifluoromethoxy)-3-((4-(trifluoromethoxy)phenyl)sulfonyl)quinoline], the cytotoxicity at 10 µM in test [1] amounted to 100%. The same compound registered a Cell death in test [2] (Lung LL2 ex vivo, Conc. 20 μm) of 80%. Turning to `CCCCOc1ccc(S(=O)(=O)c2cnc3ccc(C(=O)NCCO)cc3c2N2CCC(N3CCCCC3)CC2)cc1` [compound 202, 4-([1,4′-bipiperidin]-1′-yl)-3-((4-butoxyphenyl)sulfonyl)-N-(2-hydroxyethyl)quinoline-6-carboxamide], the cytotoxicity at 40 µM in test [1] amounted to 10%. This compound showed a Cell death in test [2] (Lung LL2 ex vivo, Conc. 40 μm) of 30%. As for `COc1ccc(S(=O)(=O)c2cnc3ccc(OC(F)(F)F)cc3c2-n2cncn2)cc1` [compound 86, 3-((4-methoxyphenyl)sulfonyl)-4-(1H-1,2,4-triazol-1-yl)-6-(trifluoromethoxy)quinoline], the cytotoxicity at 10 µM in test [1] amounted to 100%. Further, in test [2], the cytotoxicity at 20 µM is 100%. For the compound `COc1ccc(S(=O)(=O)c2cnc3ccc(OC(F)(F)F)cc3c2NCCO)cc1OC` [compound 69, 2-((3-((3,4-dimethoxyphenyl)sulfonyl)-6-(trifluoromethoxy)quinolin-4-yl)amino)ethan-1-ol], in test [1], the cytotoxicity at 40 µM worked out at 0%. Moreover, in test [2] (Lung LL2 ex vivo, Conc. 40 μm, 48 hrs), the “48 hrs (morphology observations after 48 hours)” value came to 0. The compound also registered a Cell death in test [2] (Lung LL2 ex vivo, Conc. 40 μm) of 20%. Consider `CCc1ccc(S(=O)(=O)c2cnc3ccc(OC(F)(F)F)cc3c2-n2nnc3ccccc32)cc1` [compound 112, 4-(1H-benzo[d][1,2,3]triazol-1-yl)-3-((4-ethylphenyl)sulfonyl)-6-(trifluoromethoxy)quinoline], for which the cytotoxicity at 40 µM in test [1] was determined as 10%. The cytotoxicity at 20 µM in test [2] came to 70%. For the compound `CCCN(CCC)c1c(S(=O)(=O)c2ccc(OC)c(OC)c2)cnc2ccc(OC(F)(F)F)cc12` [compound 71, 3-((3,4-dimethoxyphenyl)sulfonyl)-N,N-dipropyl-6-(trifluoromethoxy)quinolin-4-amine], the results for the cytotoxicity at 40 µM in test [1] and in test [2] were 0% and 10%, respectively. Consider `CCc1ccc(S(=O)(=O)c2cnc3ccc(OC(F)(F)F)cc3c2-n2cncn2)cc1` [compound 51, 3-((4-ethylphenyl)sulfonyl)-4-(1H-1,2,4-triazol-1-yl)-6-(trifluoromethoxy)quinoline], for which the cytotoxicity at 40 µM was 20% in test [1] and 100% in test [2]. For the compound `CCc1ccc(S(=O)(=O)c2cnc3ccc(OC(F)(F)F)cc3c2-n2cnc(C)c2)cc1` [compound 117, 3-((4-ethylphenyl)sulfonyl)-4-(4-methyl-1H-imidazol-1-yl)-6-(trifluoromethoxy)quinoline], the cytotoxicity at 20 µM in test [1] and in test [2] was 100% throughout.

On to `COc1ccc(S(=O)(=O)c2cnc3ccc(CC#N)cc3c2-n2cncn2)cc1` [compound 98, 2-(3-((4-methoxyphenyl)sulfonyl)-4-(1H-1,2,4-triazol-1-yl)quinolin-6-yl)acetonitrile], for which the cytotoxicity at 10 µM in test [1] came to 50%. Moreover, in test [2], the cytotoxicity at 20 µM was 10%. Consider `CCc1ccc(S(=O)(=O)c2cnc3ccc([N+](=O)[O-])cc3c2N2CCCN(C)CC2)cc1` [compound 76, 3-((4-ethylphenyl)sulfonyl)-4-(4-methyl-1,4-diazepan-1-yl)-6-nitroquinoline], for which the cytotoxicity at 40 µM in test [1] turned out to be 100%; in test [2] it was 20%.

Regarding `O=[N+]([O-])c1ccc(S(=O)(=O)c2cnc3ccc(OC(F)(F)F)cc3c2N2CCC(O)CC2)cc1` [compound 61, 1-(3-((4-nitrophenyl)sulfonyl)-6-(trifluoromethoxy)quinolin-4-yl)piperidin-4-ol], the cytotoxicity at 40 µM was found to be 20% in test [1] and 50% in test [2]. On to `CCCCOc1ccc(S(=O)(=O)c2cnc3ccc(SC)cc3c2N2CCCN(C)CC2)cc1` [compound 160, 3-((4-butoxyphenyl)sulfonyl)-4-(4-methyl-1,4-diazepan-1-yl)-6-(methylthio)quinoline], for which the cytotoxicity at 40 µM in test [1] and in test [2] was 100% in each case. In the case of `CN1CCN(Nc2c(S(=O)(=O)c3ccc(OC(F)(F)F)cc3)cnc3ccc(OC(F)(F)F)cc23)CC1` [compound 90, N-(4-methylpiperazin-1-yl)-6-(trifluoromethoxy)-3-((4-(trifluoromethoxy)phenyl)sulfonyl)quinolin-4-amine], the cytotoxicity at 40 µM in test [1] was 0%. The compound further came in with a Cell death in test [2] (Lung LL2 ex vivo, Conc. 40 μm) of 10%. With `CCCCN(CCCC)c1c(S(=O)(=O)c2ccc(CC)cc2)cnc2ccc(OC(F)(F)F)cc12` [compound 87, N,N-dibutyl-3-((4-ethylphenyl)sulfonyl)-6-(trifluoromethoxy)quinolin-4-amine], the cytotoxicity at 40 µM in test [1] and in test [2] was 0% throughout. For the compound `CCCCN(CCCC)c1c(S(=O)(=O)c2ccc(OC)c(OC)c2)cnc2ccc(SC)cc12` [compound 124, N,N-dibutyl-3-((3,4-dimethoxyphenyl)sulfonyl)-6-(methylthio)quinolin-4-amine], the cytotoxicity at 40 µM in test [1] is 20%. The same measure, in the same setting: with `CCOC(=O)c1ccc2ncc(S(=O)(=O)c3ccc(OC)cc3)c(N3CCC(N4CCC(O)CC4)CC3)c2c1` [compound 138, ethyl 4-(4-hydroxy-[1,4′-bipiperidin]-1′-yl)-3-((4-methoxyphenyl)sulfonyl)quinoline-6-carboxylate] the figure was 20%.

In the case of `CCOC(=O)c1ccc2ncc(S(=O)(=O)c3ccc(CC)cc3)c(N3CCC(O)(c4ccc(CC)cc4)CC3)c2c1` [compound 128, ethyl 4-(4-(4-ethylphenyl)-4-hydroxypiperidin-1-yl)-3-((4-ethylphenyl)sulfonyl)quinoline-6-carboxylate], the cytotoxicity at 40 µM in test [1] turned out to be 10%.

Take `COc1ccc(S(=O)(=O)c2cnc3ccc(SC)cc3c2N2CCC(N3CCC(O)CC3)CC2)cc1OC` [compound 153, 1′-(3-((3,4-dimethoxyphenyl)sulfonyl)-6-(methylthio)quinolin-4-yl)-[1,4′-bipiperidin]-4-ol]: the cytotoxicity at 40 µM in test [1] turned out to be 20%. Turning to `CCOC(=O)c1ccc2ncc(S(=O)(=O)c3ccc(OC)cc3)c(N3CCC(OCCN(CC)CC)CC3)c2c1` [compound 140, ethyl 4-(4-(2-(diethylamino)ethoxy)piperidin-1-yl)-3-((4-methoxyphenyl)sulfonyl)quinoline-6-carboxylate], the cytotoxicity at 40 µM in test [1] worked out at 60%.
